{"source": "patent US20060188995A1", "about": "“Process, composition and kit for providing a stable whole blood calibrator/control” (priority 2005, published 2006)", "key": {"[1]": {"system": "glycolysis in whole blood", "test": "Glucose stability of whole blood specimens with added D,L glyceraldehyde, YSI glucose concentration over weeks of storage", "format": "cell-based", "settings": "about 2° C. to about 10° C.", "description": "FIG. 4 illustrates the YSI glucose concentration (mg/dL) of blood specimens containing EDTA at various final concentrations of a mixture of D,L glyceraldehydes at 0.0, 1.0, 5.0, 10.0 and 20.0 mM, obtained over 4 weeks of real time testing at about 2° C. to about 10° C.; FIG. 5 illustrates the YSI 2300 (reference analyzer) glucose concentration (mg/dL) of blood specimens treated at various concentrations of D,L glyceraldehyde over 3 weeks at about 2° C. to about 10° C., wherein the control is an untreated blood sample; In one method, a sample containing a cellular component, (i.e. RBCs, WBCs) is collected into a microfuge or vacuum tube, e.g. VACUTAINER®, (such as supplied by Becton, Dickinson and Company, Franklin Lakes, N.J.). The initial concentration of glucose in the sample can be […]. The vacuum tube may contain any appropriate anticoagulant agent known to one of ordinary skill, including oxalate, EDTA, citrate, heparin or combination thereof, to form a suspension. If used, the anticoagulant may be added together simultaneously, or sequentially, to the sample. The resulting suspension is incubated at about 2° C. to about 30° C. and allowed to undergo glycolysis until the glucose level is less than about 20 mg/dL. […]"}, "red blood cells": {"system": "red blood cells", "test": "RBC treatment with glyceraldehyde and subsequent removal; glucose recovery of RBCs recombined with plasma and glucose", "format": "cell-based, human", "settings": "RBCs treated with 20, 35, and 50 mM for 72 hours at 2 to 10° C., washed, after 34 days, FIG. 6", "description": "FIG. 6 illustrates the YSI 2300 (reference analyzer) glucose concentration (mg/dL) of blood specimens at various concentrations of D,L glyceraldehyde respectively over 4 weeks at about 2° C. to about 10° C., wherein the control is untreated blood sample. Red blood cells were treated, washed and recombined with plasma and glucose. RBC Treatment w Glyceraldehyde & Subsequent Removal • 1) Employ fresh whole blood collected in standard anticoagulant (i.e. EDTA, heparin, sodium citrate) from a healthy adult population. Alternative blood sources may include bovine, avian, porcine, equine, goat, or alligator. • 2) Allow sufficient time for the natural enzymatic breakdown of glucose to occur (i.e. glycolysis). Deplete glucose concentration to less than about 20 mg/dl. Preferred storage at 2°-30°C. • 3) Separate RBC cellular component from plasma fraction via gravity settling and or centrifugation. If desired, the removed plasma fraction may be retained for reintroduction. • 4) Wash RBC cellular component with isotonic phosphate buffered saline solution (3×). Exchange diluent via centrifugation is preferred (15 minutes @ 1500 rpm (650× g). • 5) Adjust RBC concentration to approximately 4.0×10^6/mm^3±0.25×10^6/mm^3. […]"}, "[2]": {"system": "glycolysis in whole blood", "settings": "final concentration about 0.9 to 20 mM; testing within 16 hours; cited from earlier work"}}}
{"smiles": "O=CC(O)CO", "note": "(racemic) [D,L glyceraldehyde, 2,3-dihydroxypropanal]", "values": [{"measurement": "loss of YSI glucose concentration", "setting": "[1]; 20.0 mM D,L glyceraldehyde in EDTA blood, at 4 weeks, FIG. 4", "result": "less than 10%"}, {"measurement": "loss of YSI glucose concentration", "setting": "[1]; 30.0 mM D,L glyceraldehyde in EDTA blood, glucose burned down then added back, at 3 weeks, FIG. 5", "result": "less than 3.5%"}, {"measurement": "loss in glucose recovery", "setting": "red blood cells", "result": "< 5", "unit": "%"}, {"measurement": "glucose loss of stabilized whole blood sample", "setting": "[2]", "result": "negligible glucose loss"}]}
